# Results as given in patent US20090047221A1 (NIPRI LIMITED, priority 2004, published 2009).
# Test system: cancer cell line MDA-MB-468
# Experiment: Combination index with known cancer drugs against proliferation (Calcusyn software)
# Format: cell-based
# Excerpt: A combination index of less than 0.1 indicates very strong synergy; a combination index of 0.1 to 0.3 indicates strong synergism; a combination index of 0.3 to 0.7 indicates synergism; a combination index of 0.7 to 0.85 indicates moderate synergism; a combination index of 0.85 to 0.9 indicates slight synergism and a combination index of 0.9 to 1.1 indicates only very slight synergism, said combination being close to merely additive.
# The combination index may be calculated using calcusyn software.
# Evidence of synergy was determined by calculation of the combination index using Calcusyn software.
# The MTT assay was used initially to determine the anti-proliferative activity of the test compounds. In the MTT assay a yellow thiazolyl blue tetrazolium bromide salt (MTT) is reduced, in metabolically active cells, to form insoluble purple formazan crystals which are solubilised by the addition of dimethyl sulphoxide (DMSO). Absorbance readings can then be determined spectrophotometrically and a relationship established between control untreated cells and drug treated cells enabling the quantification of anti-proliferative changes as a result of drug treatment (Mosmann, 1983).
# Wells containing medium only were used as blanks. Following the attachment period, cells were treated with appropriate drug concentrations (20 μl added per well). 40 mg/ml stock drug solutions, in DMSO, were stored at −20° C. and on the day of drug treatment working solutions of 4 mg/ml were prepared in medium which was further diluted to achieve final drug dilution volumes of 20 μl. Initial screening was determined over a concentration range of 1-200 μg/ml. For potent compounds the assay was repeated over a narrower concentration range to determine accurate IC50 values. Cells were exposed to drug for 96 h continual exposure (37° C., 5% CO2). Following the 96 h incubation, 50 μl MTT solution (1 g MTT/500 ml PBS) was added per well and the plates were further incubated for 4 h (37° C., 5% CO2). After incubation the MTT and medium was removed from the wells and 100 μl DMSO added per well. Plates were agitated on an orbital mixer platform (Stuart Scientific) for 10 minutes. Absorbance was measured at 570 nm on a Biotrak II (Amersham Bioscience) plate reader. IC50 values were calculated comparing control and drug treated cells.
structure (smiles),measurement,setting,value
"CCCCCCNC(=O)c1ccc2c(c1O)C(=O)OC(C)C2 (racemic) [ALM-49, Hexyl Amide]",Combination Index,"Cisplatin 1 × 10^−2 mol/L, ALM compound 0.1 μg/ml",0.003
same,Combination Index,"Cisplatin 1 × 10^−2 mol/L, ALM compound 0.5 μg/ml",0.002
same,Combination Index,"Cisplatin 1 × 10^−2 mol/L, ALM compound 1.0 μg/ml",0.009
same,Combination Index,"Cisplatin 1 × 10^−2 mol/L, ALM compound 5.0 μg/ml",0.051
same,Combination Index,"Cisplatin 1 × 10^−3 mol/L, ALM compound 0.1 μg/ml",No
same,Combination Index,"Cisplatin 1 × 10^−3 mol/L, ALM compound 0.5 μg/ml",No
same,Combination Index,"Cisplatin 1 × 10^−3 mol/L, ALM compound 1.0 μg/ml",No
same,Combination Index,"Cisplatin 1 × 10^−3 mol/L, ALM compound 5.0 μg/ml",No
same,Combination Index,"Cisplatin 1 × 10^−4 mol/L, ALM compound 0.1 μg/ml",No
same,Combination Index,"Cisplatin 1 × 10^−4 mol/L, ALM compound 0.5 μg/ml",No
same,Combination Index,"Cisplatin 1 × 10^−4 mol/L, ALM compound 1.0 μg/ml",No
same,Combination Index,"Cisplatin 1 × 10^−4 mol/L, ALM compound 5.0 μg/ml",No
same,Combination Index,"Cisplatin 1 × 10^−5 mol/L, ALM compound 0.1 μg/ml",No
same,Combination Index,"Cisplatin 1 × 10^−5 mol/L, ALM compound 0.5 μg/ml",No
same,Combination Index,"Cisplatin 1 × 10^−5 mol/L, ALM compound 1.0 μg/ml",No
same,Combination Index,"Cisplatin 1 × 10^−5 mol/L, ALM compound 5.0 μg/ml",No
same,Combination Index,"Cisplatin 1 × 10^−6 mol/L, ALM compound 0.1 μg/ml",No
same,Combination Index,"Cisplatin 1 × 10^−6 mol/L, ALM compound 0.5 μg/ml",No
same,Combination Index,"Cisplatin 1 × 10^−6 mol/L, ALM compound 1.0 μg/ml",No
same,Combination Index,"Cisplatin 1 × 10^−6 mol/L, ALM compound 5.0 μg/ml",No
same,Combination Index,"Cisplatin 1 × 10^−7 mol/L, ALM compound 0.1 μg/ml",0.625
same,Combination Index,"Cisplatin 1 × 10^−7 mol/L, ALM compound 0.5 μg/ml",No
same,Combination Index,"Cisplatin 1 × 10^−7 mol/L, ALM compound 1.0 μg/ml",No
same,Combination Index,"Cisplatin 1 × 10^−7 mol/L, ALM compound 5.0 μg/ml",No
same,Combination Index,"Cisplatin 1 × 10^−8 mol/L, ALM compound 0.1 μg/ml",0.119
same,Combination Index,"Cisplatin 1 × 10^−8 mol/L, ALM compound 0.5 μg/ml",No
same,Combination Index,"Cisplatin 1 × 10^−8 mol/L, ALM compound 1.0 μg/ml",No
same,Combination Index,"Cisplatin 1 × 10^−8 mol/L, ALM compound 5.0 μg/ml",No
same,Combination Index,"Cisplatin 1 × 10^−9 mol/L, ALM compound 0.1 μg/ml",0.487
same,Combination Index,"Cisplatin 1 × 10^−9 mol/L, ALM compound 0.5 μg/ml",No
same,Combination Index,"Cisplatin 1 × 10^−9 mol/L, ALM compound 1.0 μg/ml",No
same,Combination Index,"Cisplatin 1 × 10^−9 mol/L, ALM compound 5.0 μg/ml",No
same,Combination Index,"Doxorubicin 1 × 10^−4 mol/L, ALM compound 0.1 μg/ml",No
same,Combination Index,"Doxorubicin 1 × 10^−4 mol/L, ALM compound 0.5 μg/ml",No
same,Combination Index,"Doxorubicin 1 × 10^−4 mol/L, ALM compound 1.0 μg/ml",No
same,Combination Index,"Doxorubicin 1 × 10^−4 mol/L, ALM compound 5.0 μg/ml",0.968
same,Combination Index,"Doxorubicin 1 × 10^−5 mol/L, ALM compound 0.1 μg/ml",0.410
same,Combination Index,"Doxorubicin 1 × 10^−5 mol/L, ALM compound 0.5 μg/ml",0.436
same,Combination Index,"Doxorubicin 1 × 10^−5 mol/L, ALM compound 1.0 μg/ml",0.438
same,Combination Index,"Doxorubicin 1 × 10^−5 mol/L, ALM compound 5.0 μg/ml",0.720
same,Combination Index,"Etoposide 1 × 10^−4 mol/L, ALM compound 0.1 μg/ml",0.385
same,Combination Index,"Etoposide 1 × 10^−4 mol/L, ALM compound 0.5 μg/ml",0.234
same,Combination Index,"Etoposide 1 × 10^−4 mol/L, ALM compound 1.0 μg/ml",0.210
same,Combination Index,"Etoposide 1 × 10^−4 mol/L, ALM compound 5.0 μg/ml",0.175
same,Combination Index,"Etoposide 1 × 10^−5 mol/L, ALM compound 0.1 μg/ml",1.184
same,Combination Index,"Etoposide 1 × 10^−5 mol/L, ALM compound 0.5 μg/ml",0.659
same,Combination Index,"Etoposide 1 × 10^−5 mol/L, ALM compound 1.0 μg/ml",1.065
same,Combination Index,"Etoposide 1 × 10^−5 mol/L, ALM compound 5.0 μg/ml",0.941
same,Combination Index,"Etoposide 1 × 10^−6 mol/L, ALM compound 0.1 μg/ml",No
same,Combination Index,"Etoposide 1 × 10^−6 mol/L, ALM compound 0.5 μg/ml",0.806
same,Combination Index,"Etoposide 1 × 10^−6 mol/L, ALM compound 1.0 μg/ml",No
same,Combination Index,"Etoposide 1 × 10^−6 mol/L, ALM compound 5.0 μg/ml",No
same,Combination Index,"Etoposide 1 × 10^−7 mol/L, ALM compound 0.1 μg/ml",1.167
same,Combination Index,"Etoposide 1 × 10^−7 mol/L, ALM compound 0.5 μg/ml",0.78
same,Combination Index,"Etoposide 1 × 10^−7 mol/L, ALM compound 1.0 μg/ml",No
same,Combination Index,"Etoposide 1 × 10^−7 mol/L, ALM compound 5.0 μg/ml",No
same,Combination Index,"Etoposide 1 × 10^−8 mol/L, ALM compound 0.1 μg/ml",No
same,Combination Index,"Etoposide 1 × 10^−8 mol/L, ALM compound 0.5 μg/ml",No
same,Combination Index,"Etoposide 1 × 10^−8 mol/L, ALM compound 1.0 μg/ml",No
same,Combination Index,"Etoposide 1 × 10^−8 mol/L, ALM compound 5.0 μg/ml",No
same,Combination Index,"Etoposide 1 × 10^−9 mol/L, ALM compound 0.1 μg/ml",0.836
same,Combination Index,"Etoposide 1 × 10^−9 mol/L, ALM compound 0.5 μg/ml",No
same,Combination Index,"Etoposide 1 × 10^−9 mol/L, ALM compound 1.0 μg/ml",No
same,Combination Index,"Etoposide 1 × 10^−9 mol/L, ALM compound 5.0 μg/ml",No
same,Combination Index,"Etoposide 1 × 10^−10 mol/L, ALM compound 0.1 μg/ml",0.344
same,Combination Index,"Etoposide 1 × 10^−10 mol/L, ALM compound 0.5 μg/ml",No
same,Combination Index,"Etoposide 1 × 10^−10 mol/L, ALM compound 1.0 μg/ml",No
same,Combination Index,"Etoposide 1 × 10^−10 mol/L, ALM compound 5.0 μg/ml",No
same,Combination Index,"Irinotecan 1 × 10^−3 mol/L, ALM compound 0.1 μg/ml",No
same,Combination Index,"Irinotecan 1 × 10^−3 mol/L, ALM compound 0.5 μg/ml",0.606
same,Combination Index,"Irinotecan 1 × 10^−3 mol/L, ALM compound 1.0 μg/ml",0.715
same,Combination Index,"Irinotecan 1 × 10^−3 mol/L, ALM compound 5.0 μg/ml",0.557
same,Combination Index,"Irinotecan 1 × 10^−4 mol/L, ALM compound 0.1 μg/ml",0.029
same,Combination Index,"Irinotecan 1 × 10^−4 mol/L, ALM compound 0.5 μg/ml",0.019
same,Combination Index,"Irinotecan 1 × 10^−4 mol/L, ALM compound 1.0 μg/ml",0042
same,Combination Index,"Irinotecan 1 × 10^−4 mol/L, ALM compound 5.0 μg/ml",0.042
same,Combination Index,"Irinotecan 1 × 10^−5 mol/L, ALM compound 0.1 μg/ml",No
same,Combination Index,"Irinotecan 1 × 10^−5 mol/L, ALM compound 0.5 μg/ml",No
same,Combination Index,"Irinotecan 1 × 10^−5 mol/L, ALM compound 1.0 μg/ml",No
same,Combination Index,"Irinotecan 1 × 10^−5 mol/L, ALM compound 5.0 μg/ml",No
same,Combination Index,"Irinotecan 1 × 10^−6 mol/L, ALM compound 0.1 μg/ml",No
same,Combination Index,"Irinotecan 1 × 10^−6 mol/L, ALM compound 0.5 μg/ml",No
same,Combination Index,"Irinotecan 1 × 10^−6 mol/L, ALM compound 1.0 μg/ml",No
same,Combination Index,"Irinotecan 1 × 10^−6 mol/L, ALM compound 5.0 μg/ml",No
same,Combination Index,"Irinotecan 1 × 10^−7 mol/L, ALM compound 0.1 μg/ml",No
same,Combination Index,"Irinotecan 1 × 10^−7 mol/L, ALM compound 0.5 μg/ml",No
same,Combination Index,"Irinotecan 1 × 10^−7 mol/L, ALM compound 1.0 μg/ml",No
same,Combination Index,"Irinotecan 1 × 10^−7 mol/L, ALM compound 5.0 μg/ml",No
same,Combination Index,"Irinotecan 1 × 10^−8 mol/L, ALM compound 0.1 μg/ml",No
same,Combination Index,"Irinotecan 1 × 10^−8 mol/L, ALM compound 0.5 μg/ml",No
same,Combination Index,"Irinotecan 1 × 10^−8 mol/L, ALM compound 1.0 μg/ml",No
same,Combination Index,"Irinotecan 1 × 10^−8 mol/L, ALM compound 5.0 μg/ml",No
same,Combination Index,"Irinotecan 1 × 10^−9 mol/L, ALM compound 0.1 μg/ml",No
same,Combination Index,"Irinotecan 1 × 10^−9 mol/L, ALM compound 0.5 μg/ml",No
same,Combination Index,"Irinotecan 1 × 10^−9 mol/L, ALM compound 1.0 μg/ml",No
same,Combination Index,"Irinotecan 1 × 10^−9 mol/L, ALM compound 5.0 μg/ml",No
same,Combination Index,"Irinotecan 1 × 10^−10 mol/L, ALM compound 0.1 μg/ml",No
same,Combination Index,"Irinotecan 1 × 10^−10 mol/L, ALM compound 0.5 μg/ml",No
same,Combination Index,"Irinotecan 1 × 10^−10 mol/L, ALM compound 1.0 μg/ml",No
same,Combination Index,"Irinotecan 1 × 10^−10 mol/L, ALM compound 5.0 μg/ml",No
